Results published in patent US9765092B2, “Tricyclic piperidine compounds” (ACTELION PHARMACEUTICALS LTD, priority 2013, dated 2017).

Target: human TPH1 (Homo sapiens (Human), UniProt P17752)
Assay: Biochemical in vitro assay using fluorescence readout (TPH1 inhibition)
Conditions: human TPH1, fluorescence readout

Chain of human TPH1 (P17752 whole entry): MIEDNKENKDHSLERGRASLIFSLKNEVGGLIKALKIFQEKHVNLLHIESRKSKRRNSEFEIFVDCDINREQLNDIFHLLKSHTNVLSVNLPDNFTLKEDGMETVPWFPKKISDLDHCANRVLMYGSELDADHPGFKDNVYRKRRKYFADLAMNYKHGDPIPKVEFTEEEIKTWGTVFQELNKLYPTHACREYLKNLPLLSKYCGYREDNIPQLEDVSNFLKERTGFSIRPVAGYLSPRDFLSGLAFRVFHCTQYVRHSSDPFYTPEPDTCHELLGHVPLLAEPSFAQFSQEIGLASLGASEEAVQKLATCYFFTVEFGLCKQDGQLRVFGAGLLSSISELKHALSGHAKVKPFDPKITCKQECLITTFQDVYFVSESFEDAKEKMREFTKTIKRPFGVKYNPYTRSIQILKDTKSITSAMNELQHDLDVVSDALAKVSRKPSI

With `O=C(COc1ccc(CN2CCOCC2)nc1Cl)N1CCc2nc3sccn3c2C1c1nc2ccccc2s1` (stereo not shown) [Example 6.12.8, 1-(5-(benzo[d]thiazol-2-yl)-7,8-dihydrothiazolo-[2′,3′:2,3]imidazo[4,5-c]pyridin-6(5H)-yl)-2-((2-chloro-6-(morpholinomethyl)pyridin-3-yl)oxy)ethanone] the IC50 was 0.043 µM.
With `O=C(COc1ccc2ccncc2c1)N1CCc2nc3sccn3c2C1c1nc2ccccc2s1` (stereo not shown) [Example 6.12.9, 1-(5-(benzo[d]thiazol-2-yl)-7,8-dihydrothiazolo-[2′,3′:2,3]imidazo[4,5-c]pyridin-6(5H)-yl)-2-(isoquinolin-7-yloxy)ethanone] the IC50 was 0.012 µM.
For `O=C(COc1cccc(C(F)(F)F)c1Cl)N1CCc2nc3sccn3c2C1c1cnn(-c2ccccc2)c1` (stereo not shown) [Example 6.13.1, 2-(2-chloro-3-(trifluoromethyl)phenoxy)-1-(5-(1-phenyl-1H-pyrazol-4-yl)-7,8-dihydrothiazolo[2′,3′:2,3]-imidazo[4,5-c]pyridin-6(5H)-yl)ethanone], the IC50 was 0.075 µM.
`O=C(COc1ccc(Cl)cc1Cl)N1CCc2nc3sccn3c2C1c1cnn(-c2ccccc2)c1` (stereo not shown) [Example 6.13.2, 2-(2,4-dichlorophenoxy)-1-(5-(1-phenyl-1H-pyrazol-4-yl)-7,8-dihydrothiazolo[2′,3′:2,3]imidazo[4,5-c]pyridin-6(5H)-yl)ethanone] gave an IC50 of 0.05 µM.
With `Cc1ccc(OCC(=O)N2CCc3nc4sccn4c3C2c2cnn(-c3ccccc3)c2)cc1` (stereo not shown) [Example 6.13.3, 1-(5-(1-phenyl-1H-pyrazol-4-yl)-7,8-dihydrothiazolo-[2′,3′:2,3]imidazo[4,5-c]pyridin-6(5H)-yl)-2-(p-tolyl-oxy)ethanone] the IC50 was 0.053 µM.
Compound `Cc1ccccc1OCC(=O)N1CCc2nc3sccn3c2C1c1cnn(-c2ccccc2)c1` (stereo not shown) [Example 6.13.4, 1-(5-(1-phenyl-1H-pyrazol-4-yl)-7,8-dihydrothiazolo-[2′,3′:2,3]imidazo[4,5-c]pyridin-6(5H)-yl)-2-(o-tolyl-oxy)ethanone] has an IC50 of 0.236 µM.
`O=C(COc1ccc(CN2CCOCC2)cc1Cl)N1CCc2nc3sccn3c2C1c1cnn(-c2ccccc2)c1` (stereo not shown) [Example 6.13.5, 2-(2-chloro-4-(morpholinomethyl)phenoxy)-1-(5-(1-phenyl-1H-pyrazol-4-yl)-7,8-dihydrothiazolo-[2′,3′:2,3]imidazo[4,5-c]pyridin-6(5H)-yl)ethanone] showed an IC50 of 0.007 µM.
Work on `O=C(COc1ccc(CN2CCOCC2)nc1Cl)N1CCc2nc3sccn3c2C1c1cnn(-c2ccccc2)c1` (stereo not shown) [Example 6.13.6, 2-((2-chloro-6-(morpholinomethyl)pyridin-3-yl)oxy)-1-(5-(1-phenyl-1H-pyrazol-4-yl)-7,8-dihydrothiazolo-[2′,3′:2,3]imidazo[4,5-c]pyridin-6(5H)-yl)ethanone] yielded an IC50 of 0.028 µM.
For `Cc1cc(Cl)ccc1OCC(=O)N1CCc2nc3sccn3c2C1c1cnn(-c2ccccc2)c1` (stereo not shown) [Example 6.13.7, 2-(4-chloro-2-methylphenoxy)-1-(5-(1-phenyl-1H-pyrazol-4-yl)-7,8-dihydrothiazolo[2′,3′:2,3]imidazo[4,5-c]pyridin-6(5H)-yl)ethanone], the IC50 was 0.026 µM.
For `O=C(COc1ccc(C(F)(F)F)cc1Cl)N1CCc2nc3sccn3c2C1c1cnn(-c2ccccc2)c1` (stereo not shown) [Example 6.13.8, 2-(2-chloro-4-(trifluoromethyl)phenoxy)-1-(5-(1-phenyl-1H-pyrazol-4-yl)-7,8-dihydrothiazolo[2′,3′:2,3]-imidazo[4,5-c]pyridin-6(5H)-yl)ethanone], the IC50 was 0.08 µM.
In the case of `CCc1ncccc1OCC(=O)N1CCc2nc3sccn3c2C1c1cnn(-c2ccccc2)c1` (stereo not shown) [Example 6.13.9, 2-((2-ethylpyridin-3-yl)oxy)-1-(5-(1-phenyl-1H-pyrazol-4-yl)-7,8-dihydrothiazolo[2′,3′:2,3]imidazo[4,5-c]pyridin-6(5H)-yl)ethanone], the IC50 is reported as 0.123 µM.
`O=C(COc1ccc(Cl)cc1Cl)N1CCc2nc3sccn3c2C1c1cc2cccnc2s1` (stereo not shown) [Example 6.14.1, 2-(2,4-dichlorophenoxy)-1-(5-(thieno[2,3-b]pyridin-2-yl)-7,8-dihydrothiazolo[2′,3′:2,3]imidazo[4,5-c]pyridin-6(5H)-yl)ethanone] gave an IC50 of 0.025 µM.
`Cc1cc(Cl)ccc1OCC(=O)N1CCc2nc3sccn3c2C1c1cc2cccnc2s1` (stereo not shown) [Example 6.14.2, 2-(4-chloro-2-methylphenoxy)-1-(5-(thieno[2,3-b]-pyridin-2-yl)-7,8-dihydrothiazolo[2′,3′:2,3]imidazo[4,5-c]pyridin-6(5H)-yl)ethanone] showed an IC50 of 0.039 µM.
Compound `O=C(COc1cccnc1Cl)N1CCc2nc3sccn3c2C1c1cc2cccnc2s1` (stereo not shown) [Example 6.14.3, 2-((2-chloropyridin-3-yl)oxy)-1-(5-(thieno[2,3-b]pyridin-2-yl)-7,8-dihydrothiazolo[2′,3′:2,3]imidazo[4,5-c]pyridin-6(5H)-yl)ethanone] has an IC50 of 0.067 µM.
Compound `O=C(COc1ccc(CN2CCOCC2)nc1Cl)N1CCc2nc3sccn3c2C1c1cc2cccnc2s1` (stereo not shown) [Example 6.14.4, 2-((2-chloro-6-(morpholinomethyl)pyridin-3-yl)oxy)-1-(5-(thieno[2,3-b]pyridin-2-yl)-7,8-dihydrothiazolo-[2′,3′:2,3]imidazo[4,5-c]pyridin-6(5H)-yl)ethanone] has an IC50 of 0.038 µM.
Compound `Cc1ccc(Cl)c(OCC(=O)N2CCc3nc4sccn4c3C2c2cc3cccnc3s2)c1` (stereo not shown) [Example 6.14.5, 2-(2-chloro-5-methylphenoxy)-1-(5-(thieno[2,3-b]-pyridin-2-yl)-7,8-dihydrothiazolo[2′,3′:2,3]imidazo[4,5-c]pyridin-6(5H)-yl)ethanone] has an IC50 of 0.043 µM.
With `CCc1nc(C)ccc1OCC(=O)N1CCc2nc3sccn3c2C1c1c(C)nn(C)c1C` (stereo not shown) [Example 6.15.1, ((2-ethyl-6-methylpyridin-3-yl)oxy)-1-(5-(1,3,5-trimethyl-1H-pyrazol-4-yl)-7,8-dihydrothiazolo-[2′,3′:2,3]imidazo[4,5-c]pyridin-6(5H)-yl)ethanone] the IC50 was 0.149 µM.
Compound `Cc1nn(C)c(C)c1C1c2c(nc3sccn23)CCN1C(=O)COc1ccc(C(F)(F)F)cc1Cl` (stereo not shown) [Example 6.15.2, 2-(2-chloro-4-(trifluoromethyl)phenoxy)-1-(5-(1,3,5-trimethyl-1H-pyrazol-4-yl)-7,8-dihydrothiazolo-[2′,3′:2,3]imidazo[4,5-c]pyridin-6(5H)-yl)ethanone] has an IC50 of 0.048 µM.
Work on `Cc1cc(Cl)ccc1OCC(=O)N1CCc2nc3sccn3c2C1c1c(C)nn(C)c1C` (stereo not shown) [Example 6.15.3, 2-(4-chloro-2-methylphenoxy)-1-(5-(1,3,5-trimethyl-1H-pyrazol-4-yl)-7,8-dihydrothiazolo[2′,3′:2,3]imidazo[4,5-c]pyridin-6(5H)-yl)ethanone] yielded an IC50 of 0.02 µM.
Work on `CCc1cc(Cl)ccc1OCC(=O)N1CCc2nc3sccn3c2C1c1c(C)nn(C)c1C` (stereo not shown) [Example 6.15.4, 2-(4-chloro-2-ethylphenoxy)-1-(5-(1,3,5-trimethyl-1H-pyrazol-4-yl)-7,8-dihydrothiazolo[2′,3′:2,3]imidazo[4,5-c]pyridin-6(5H)-yl)ethanone] yielded an IC50 of 0.102 µM.
For `CCc1ncccc1OCC(=O)N1CCc2nc3sccn3c2C1c1ccc(C(F)F)cc1F` (stereo not shown) [Example 6.16.1, 1-(5-(4-(difluoromethyl)-2-fluorophenyl)-7,8-dihydro-thiazolo[2′,3′:2,3]imidazo[4,5-c]pyridin-6(5H)-yl)-2-((2-ethylpyridin-3-yl)oxy)ethanone], the IC50 was 0.014 µM.
In the case of `CCc1nc(C)ccc1OCC(=O)N1CCc2nc3sccn3c2C1c1ccc(C(F)F)cc1F` (stereo not shown) [Example 6.16.2, 1-(5-(4-(difluoromethyl)-2-fluorophenyl)-7,8-dihydro-thiazolo[2′,3′:2,3]imidazo[4,5-c]pyridin-6(5H)-yl)-2-((2-ethyl-6-methylpyridin-3-yl)oxy)ethanone], the IC50 is reported as 0.008 µM.
With `O=C(COc1cccnc1Cl)N1CCc2nc3sccn3c2C1c1ccc(C(F)F)cc1F` (stereo not shown) [Example 6.16.3, 2-((2-chloropyridin-3-yl)oxy)-1-(5-(4-(difluoromethyl)-2-fluorophenyl)-7,8-dihydrothiazolo[2′,3′:2,3]imidazo[4,5-c]pyridin-6(5H)-yl)ethanone] the IC50 was 0.015 µM.
For `CCc1nc(C)ccc1OCC(=O)N1CCc2nc3sccn3c2C1c1ccc(C(F)(F)F)nc1C` (stereo not shown) [Example 6.17.1, 2-((2-ethyl-6-methylpyridin-3-yl)oxy)-1-(5-(2-methyl-6-(trifluoromethyl)pyridin-3-yl)-7,8-dihydrothiazolo-[2′,3′:2,3]imidazo[4,5-c]pyridin-6(5H)-yl)ethanone], the IC50 was 0.194 µM.
Compound `CS(=O)(=O)Nc1ccc(OCC(=O)N2CCc3nc4sc(CF)nn4c3C2c2ccc(Cl)cc2F)c(Cl)n1` (stereo not shown) [Example 7.1.1, N-(6-chloro-5-(2-(5-(4-chloro-2-fluorophenyl)-2-(fluoromethyl)-7,8-dihydro-[1,3,4]thiadiazolo[2′,3′:2,3-]imidazo[4,5-c]pyridin-6(5H)-yl)-2-oxoethoxy)pyridin-2-yl)methanesulfonamide] has an IC50 of 0.008 µM.
For `CCc1nc(NS(C)(=O)=O)ccc1OCC(=O)N1CCc2nc3sc(CF)nn3c2C1c1ccc(Cl)cc1F` (stereo not shown) [Example 7.1.2, N-(5-(2-(5-(4-chloro-2-fluorophenyl)-2-(fluoromethyl)-7,8-dihydro-[1,3,4]thiadiazolo[2′,3′:2,3]imidazo[4,5-c]pyridin-6(5H)-yl)-2-oxoethoxy)-6-ethylpyridin-2-yl)methanesulfonamide], the IC50 was 0.008 µM.
`CCc1nc(N2CCCS2(=O)=O)ccc1OCC(=O)N1CCc2nc3sc(CF)nn3c2C1c1ccc(Cl)cc1F` (stereo not shown) [Example 7.1.3, 1-(5-(4-chloro-2-fluorophenyl)-2-(fluoromethyl)-7,8-dihydro-[1,3,4]thiadiazolo[2′,3′:2,3]imidazo[4,5-c]pyridin-6(5H)-yl)-2-((6-(1,1-dioxidoisothiazolidin-2-yl)-2-ethylpyridin-3-yl)oxy)ethan-1-one] was tested, and the IC50 was 0.006 µM.
In the case of `CCc1nc(N2CCCS2(=O)=O)ccc1OCC(=O)N1CCc2nc3sc(CF)nn3c2C1c1ncc(C)cc1F` (stereo not shown) [Example 7.2.1, 2-((6-(1,1-dioxidoisothiazolidin-2-yl)-2-ethylpyridin-3-yl)oxy)-1-(5-(3-fluoro-5-methylpyridin-2-yl)-2-(fluoromethyl)-7,8-dihydro-[1,3,4]thiadiazolo[2′,3′:2,3]imidazo[4,5-c]pyridin-6(5H)-yl)ethanone], the IC50 is reported as 0.009 µM.
